# Results from patent publication US9169509B2, “Topoisomerase 2b as a predictor of susceptibility to anthracycline-induced cardiotoxicity” (Board of Regents, The University of Texas System, priority 2013, dated 2015).
# Peptide text beside a SMILES is read from it. * marks the point of attachment. Cbz = O=C(OCc1ccccc1)*
# Assays:
# [1] = biological target: T1, Top2b (Homo sapiens, UniProt Q02880); assay: Immunoblot of Top2b in U2OS cells treated with Dex and/or MG132; type: cell-based
# T1 construct: endogenous in cells; host or cells: U2OS
# Protocol: (§1) FIG. 10. […] U2OS cells were treated with 100 mM Dex and/or 10 mM MG132, a proteosome inhibitor, for 2, 4, or 6 hours. Cell lysates were immunoblotted with anti-Top2a, Top2b, or actin antibodies.
# (§2) The effect of Dex treatment of Top2a levels was also tested. Briefly, U2OS cells were treated with 100 mM Dex and/or 10 mM MG132 (a proteosome inhibitor) for 2, 4, or 6 hours. Cell lysates were immunoblotted with anti-Top2a, Top2b, or actin antibodies.
# [2] = test system: mouse heart; assay: Cardiac MRI for measuring cardiac function after chronic doxorubicin
# Protocol: Before Cre induction, cardiac MRI scan was performed on each mouse to examine the baseline ejection fraction. Cardiomyocyte-specific Cre induction was carried out by treating mice with tamoxifen. […] Doxorubicin treatment (5 mg/kg, i.p., once a week for 5 weeks) was started 7 days after the second MRI scan. Two weeks after the last dose of doxorubicin, a third MRI scan was performed (FIG. 6a).
# Every mouse in the EF experiments received 3 MRI scans, i.e., a baseline scan, a second scan 2 weeks after the end of tamoxifen treatment, and a third scan 2 weeks after the last dose of doxorubicin. […] Mice were anesthetized with isoflurane (2.5% in 97.5% O2), and scanned on a 7.0 T Biospec small animal scanner (Bruker Biospin Inc., Billerica, Mass.). Imaging gradients with 60 mm inner diameter (ID) were used with a 35 mm ID linear birdcage-style volume resonator. T1-weighted anatomic reference images were acquired using a three dimension (3D) fast low-angle shot (FLASH) gradient echo sequence. A retrospectively gated FLASH pulse sequence was used to acquire cardiac cine images with excellent contrast between bright blood and adjacent myocardium. To measure volumetric left ventricular ejection fraction (LVEF), at least 6 short axis images were scanned at 1 mm interval from the apex to the base of the heart. End-diastolic (ED) and end-systolic (ES) left ventricular volumes were obtained by the biplane area length method, and LVEF was calculated with the equation: [(ED-ES)/ED]/100.
# Two weeks after completion of tamoxifen treatment mice were treated with doxorubicin or drug vehicle. Two cohorts of mice were treated with different schedules. […] To evaluate the chronic effect of doxorubicin on cardiac function, doxorubicin (5 mg/kg, i.p.) was administered once a week for 5 weeks, and cardiac function was examined 2 weeks after the last dose of doxorubicin by using MRI.
# The effect of chronic doxorubicin treatment (5 mg/kg, ip, once a week for 5 weeks) was evaluated for its effect on ejection fraction.
# [3] = test system: DNA double strand breaks in the heart; assay: Detection of DNA double strand breaks (γ-H2AX staining) in heart sections; type: in vivo, mouse; conditions: dexrazoxane 100 mg/kg ip 8 hrs prior to doxorubicin 25 mg/kg; hearts 16 hr after doxorubicin
# Protocol: After mice were sacrificed, hearts were perfused with ice-cold PBS, quickly removed, embedded in OCT compound (Fisher Scientific), and snap-frozen in liquid nitrogen. The heart was sectioned to 5 μm-thick slices using a cryostat. Heart sections were stored at −80° C. until immunofluorescence staining was performed. Heart sections were rinsed with PBS at room temperature, fixed in BD Cytofix/Cytoperm solution (BD Biosciences) for 15 m, washed in PBS, and permeabilized in BD Perm/Wash solution for 30 m. Heart sections were first blocked with BSA (2 mg/ml) for 30 m, then incubated with an mouse monoclonal anti-γ-H2AX antibody conjugated with Alexa Fluor 555 (Clone N1-431, BD Biosciences) for 1 h. Nuclei were stained with DAPI (Sigma, 1 μg/ml PBS), and the slides were sealed for examination with an Olympus epifluorescence microscope (Model BX51). To quantify DSBs, the numbers of γ-H2AX-positive nuclei and the total nuclei were counted in 5 microscopic fields (400×) per section. For each mouse, five heart sections were counted to determine the percentage of γ-H2AX-positive nuclei.
# To further confirm the cardio-protective effect of Dex, DNA double strand breaks were assessed in heart tissues. Dexrazoxane (100 mg/kg) was injected (ip) 8 hrs prior to doxorubicin (25 mg/kg) treatment. Hearts were harvested 16 hr after doxorubicin treatment. The percentage of γH2AX-positive nuclei was counted in 5 fields (400×) in each heart section. Five sections were counted in each heart to determine the average percentage of γH2AX-positive nuclei.
# [4] = test system: heart sections; assay: Detection of apoptosis in heart sections (TUNEL assay); type: in vivo, mouse; conditions: dexrazoxane 100 mg/kg ip 8 hrs prior to doxorubicin 25 mg/kg ip; hearts 16 hrs after doxorubicin
# Protocol: Apoptosis was detected by using TUNEL assay on heart sections. Heart harvest, sectioning, and storage were described above. Heart sections were warmed to room temperature before the apoptotic nuclei were stained by using a commercially available kit (In Situ Cell Death Detection Kit, Cat. No. 12156792910, Roche Applied Science). The entire staining procedures were performed according to the manufacturer's instructions. The nuclei were stained with DAPI (Sigma) before the slides were sealed and examined with an Olympus epifluorescence microscope (Model BX51). The apoptotic nuclei and the total nuclei per heart section were counted at 200× magnification. The apoptotic nuclei in 5 heart sections of each mouse were counted and averaged.
# The cardio-protective effect of Dex against doxirubin-induced apoptosis was assessed in heart tissues. Dexrazoxane (100 mg/kg) was injected (ip) 8 hrs prior to doxorubicin (25 mg/kg) injection (ip). One group received only doxorubicin and a second group received only dexrazoxane. Hearts were harvested 16 hrs after doxorubicin treatment. The numbers of TUNEL-positive nuclei were counted in five fields in each heart section.
# [5] = biological target: T2, Top2a (Homo sapiens, UniProt P11388); assay: Immunoblot of Top2a in U2OS cells treated with Dex and/or MG132; type: cell-based; conditions: 100 mM Dex for 2, 4, or 6 hours
# T2 construct: endogenous in cells; host or cells: U2OS
# Protocol: as §1, §2
# [6] = biological target: T3, Top2b (Mus musculus, UniProt Q64511); assay: Western blot of Top2b protein levels in heart tissue after dexrazoxane; type: in vivo; conditions: dexrazoxane 100 mg/kg i.p.
# T3 construct: Frozen tissues were homogenized in lysis buffer and sonicated to extract proteins for western blotting; from tissue; host or cells: mouse heart
# Protocol: Expression of Top2b was examined in the hearts of mice. After sacrifice, the heart was quickly removed and homogenized immediately in lysis buffer. After homogenization, the lysate was sonicated at 4° C. and an aliquot was removed for protein concentration measurement. The lysate was stored at −80° C. for western blot analysis. 20 μg of lysate proteins were electrophoresed and transferred to PVDF membranes. Blots were blocked with 5% non-fat dry milk, and incubated overnight at 4° C. with anti-Top2b antibody (Abcam). To detect mitochondrial proteins, the mitochondria were isolated from cardiomyocytes. The cardiomyocytes were isolated with a Langendorff perfusion system according to a published protocol3. Briefly, heart was removed and rinsed with ice-cold PBS twice before connecting to a Langendorff apparatus through the aorta. The heart was perfused first with perfusion buffer for 3 m at 37° C. (3 ml/min), then digestion buffer (enzyme-containing) buffer at 37° C. for 8-10 m. The heart was disintegrated manually and the tissue/cells were separated by using forceps. The tissue/cell suspension was incubated for another 3-5 m in digestion buffer, then triturate the cells gently using a 1 ml pipette before adding stopping buffer. After purification by centrifugation the mitochondria were isolated from the cardiomyocytes with a kit (Cat. No. MS853, Mitosciences) for separating mitochondria from nuclei and cytosol. The isolated mitochondria were homogenized in lysis buffer and sonicated before being stored at −80° C. until use. 20 μg of lysate proteins were electrophoresed and transferred to PVDF membranes. Blots were blocked incubated overnight at 4° C. with anti-Ndufa3 (Sigma), anti-Atp5a (Abcam) or anti-Sdha antibodies (Abcam). After incubation with HRP-conjugated secondary antibodies for 40 m at room temperature, the blots were detected with a luminol-based detection kit (ECL, GE Health Care).
# To test the effect of dexrazoxane (Dex) on Top2b protein levels, mice were treated with dexrazoxane (100 mg/kg, i.p.). At different time points following treatment hearts were removed under anesthesia and perfused with PBS to remove blood. Each heart was cut into 10 pieces and snap-frozen in liquid nitrogen. Frozen tissues were homogenized in lysis buffer and sonicated to extract proteins for western blotting.
# T3 sequence (Q64511 2-1612 limits assumed): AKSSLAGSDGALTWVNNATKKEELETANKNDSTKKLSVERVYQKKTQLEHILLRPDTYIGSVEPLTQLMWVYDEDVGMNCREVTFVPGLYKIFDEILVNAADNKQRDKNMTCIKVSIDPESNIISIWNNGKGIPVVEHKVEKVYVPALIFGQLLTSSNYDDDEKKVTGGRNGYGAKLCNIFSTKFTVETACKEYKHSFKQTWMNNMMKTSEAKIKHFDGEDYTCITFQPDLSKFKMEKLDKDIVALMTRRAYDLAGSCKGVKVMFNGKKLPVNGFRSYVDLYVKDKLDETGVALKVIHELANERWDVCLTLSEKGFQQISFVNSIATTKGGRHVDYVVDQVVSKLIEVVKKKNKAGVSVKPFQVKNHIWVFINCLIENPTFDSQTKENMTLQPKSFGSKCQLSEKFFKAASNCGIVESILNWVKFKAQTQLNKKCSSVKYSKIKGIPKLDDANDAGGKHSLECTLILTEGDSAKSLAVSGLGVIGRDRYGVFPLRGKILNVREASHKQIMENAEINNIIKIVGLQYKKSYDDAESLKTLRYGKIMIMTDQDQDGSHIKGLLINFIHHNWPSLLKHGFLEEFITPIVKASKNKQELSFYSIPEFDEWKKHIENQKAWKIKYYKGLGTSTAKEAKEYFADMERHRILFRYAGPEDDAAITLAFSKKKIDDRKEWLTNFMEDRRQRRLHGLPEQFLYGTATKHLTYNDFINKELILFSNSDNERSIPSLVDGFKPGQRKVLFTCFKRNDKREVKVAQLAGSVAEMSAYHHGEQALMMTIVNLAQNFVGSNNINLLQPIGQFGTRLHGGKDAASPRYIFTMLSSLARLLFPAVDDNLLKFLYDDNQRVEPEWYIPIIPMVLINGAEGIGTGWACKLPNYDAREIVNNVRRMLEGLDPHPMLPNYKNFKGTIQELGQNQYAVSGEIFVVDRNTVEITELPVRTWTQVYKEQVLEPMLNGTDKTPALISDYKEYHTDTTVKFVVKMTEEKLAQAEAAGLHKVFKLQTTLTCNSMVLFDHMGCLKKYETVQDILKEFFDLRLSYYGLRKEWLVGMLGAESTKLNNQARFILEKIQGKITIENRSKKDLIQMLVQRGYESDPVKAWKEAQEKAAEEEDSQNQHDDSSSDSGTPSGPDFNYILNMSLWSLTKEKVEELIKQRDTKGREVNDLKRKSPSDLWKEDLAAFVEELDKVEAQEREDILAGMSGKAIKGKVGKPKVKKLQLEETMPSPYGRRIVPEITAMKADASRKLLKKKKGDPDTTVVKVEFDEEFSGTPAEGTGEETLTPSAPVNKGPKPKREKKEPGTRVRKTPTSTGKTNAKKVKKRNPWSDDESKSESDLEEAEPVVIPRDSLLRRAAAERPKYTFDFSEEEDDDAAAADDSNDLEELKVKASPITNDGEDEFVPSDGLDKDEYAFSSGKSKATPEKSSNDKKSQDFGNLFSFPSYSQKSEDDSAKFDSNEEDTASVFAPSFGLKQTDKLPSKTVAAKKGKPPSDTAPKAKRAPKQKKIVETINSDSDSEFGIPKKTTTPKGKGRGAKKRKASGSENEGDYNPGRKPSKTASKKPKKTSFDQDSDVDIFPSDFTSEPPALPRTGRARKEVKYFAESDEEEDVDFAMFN
# T1 sequence (Q02880 2-1626 limits assumed): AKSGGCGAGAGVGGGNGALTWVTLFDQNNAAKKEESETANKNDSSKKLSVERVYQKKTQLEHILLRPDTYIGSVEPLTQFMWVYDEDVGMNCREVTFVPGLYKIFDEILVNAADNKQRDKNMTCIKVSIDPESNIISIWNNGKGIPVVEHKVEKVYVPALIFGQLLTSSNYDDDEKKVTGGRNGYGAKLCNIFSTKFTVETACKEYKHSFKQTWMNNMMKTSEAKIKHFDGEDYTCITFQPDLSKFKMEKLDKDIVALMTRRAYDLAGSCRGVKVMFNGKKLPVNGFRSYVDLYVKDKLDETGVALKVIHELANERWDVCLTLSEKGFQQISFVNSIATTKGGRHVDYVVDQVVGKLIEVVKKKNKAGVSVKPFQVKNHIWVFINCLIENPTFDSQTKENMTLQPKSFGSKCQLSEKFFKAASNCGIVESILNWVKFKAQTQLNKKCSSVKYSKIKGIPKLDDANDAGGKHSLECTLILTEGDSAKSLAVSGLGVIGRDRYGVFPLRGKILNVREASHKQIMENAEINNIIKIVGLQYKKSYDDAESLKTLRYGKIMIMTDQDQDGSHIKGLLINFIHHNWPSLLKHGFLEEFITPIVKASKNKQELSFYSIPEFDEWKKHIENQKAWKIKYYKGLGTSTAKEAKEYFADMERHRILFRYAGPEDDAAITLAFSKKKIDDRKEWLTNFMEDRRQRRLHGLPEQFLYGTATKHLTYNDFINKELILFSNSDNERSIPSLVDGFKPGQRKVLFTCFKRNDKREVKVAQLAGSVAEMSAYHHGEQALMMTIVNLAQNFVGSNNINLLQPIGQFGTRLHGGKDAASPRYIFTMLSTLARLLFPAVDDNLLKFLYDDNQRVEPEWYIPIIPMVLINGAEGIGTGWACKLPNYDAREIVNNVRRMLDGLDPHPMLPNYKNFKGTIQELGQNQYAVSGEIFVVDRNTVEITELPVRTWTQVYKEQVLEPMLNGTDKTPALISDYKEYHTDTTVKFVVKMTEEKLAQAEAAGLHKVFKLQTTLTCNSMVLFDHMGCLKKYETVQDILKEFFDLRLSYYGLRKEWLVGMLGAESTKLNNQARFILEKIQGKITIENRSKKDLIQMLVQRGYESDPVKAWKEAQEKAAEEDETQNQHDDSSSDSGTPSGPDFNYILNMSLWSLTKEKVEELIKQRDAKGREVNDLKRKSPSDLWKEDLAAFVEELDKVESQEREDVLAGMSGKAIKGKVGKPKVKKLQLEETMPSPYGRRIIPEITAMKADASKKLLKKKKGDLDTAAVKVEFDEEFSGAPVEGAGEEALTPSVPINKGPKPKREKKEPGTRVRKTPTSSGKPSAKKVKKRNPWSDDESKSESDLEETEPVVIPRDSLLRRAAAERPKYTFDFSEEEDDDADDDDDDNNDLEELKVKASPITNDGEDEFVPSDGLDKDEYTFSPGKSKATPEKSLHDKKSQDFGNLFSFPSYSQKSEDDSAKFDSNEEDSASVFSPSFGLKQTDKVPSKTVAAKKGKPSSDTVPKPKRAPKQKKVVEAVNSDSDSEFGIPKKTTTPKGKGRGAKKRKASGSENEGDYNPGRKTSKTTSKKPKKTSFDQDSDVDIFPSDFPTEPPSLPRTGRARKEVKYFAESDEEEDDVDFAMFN
# T2 sequence (P11388 whole entry): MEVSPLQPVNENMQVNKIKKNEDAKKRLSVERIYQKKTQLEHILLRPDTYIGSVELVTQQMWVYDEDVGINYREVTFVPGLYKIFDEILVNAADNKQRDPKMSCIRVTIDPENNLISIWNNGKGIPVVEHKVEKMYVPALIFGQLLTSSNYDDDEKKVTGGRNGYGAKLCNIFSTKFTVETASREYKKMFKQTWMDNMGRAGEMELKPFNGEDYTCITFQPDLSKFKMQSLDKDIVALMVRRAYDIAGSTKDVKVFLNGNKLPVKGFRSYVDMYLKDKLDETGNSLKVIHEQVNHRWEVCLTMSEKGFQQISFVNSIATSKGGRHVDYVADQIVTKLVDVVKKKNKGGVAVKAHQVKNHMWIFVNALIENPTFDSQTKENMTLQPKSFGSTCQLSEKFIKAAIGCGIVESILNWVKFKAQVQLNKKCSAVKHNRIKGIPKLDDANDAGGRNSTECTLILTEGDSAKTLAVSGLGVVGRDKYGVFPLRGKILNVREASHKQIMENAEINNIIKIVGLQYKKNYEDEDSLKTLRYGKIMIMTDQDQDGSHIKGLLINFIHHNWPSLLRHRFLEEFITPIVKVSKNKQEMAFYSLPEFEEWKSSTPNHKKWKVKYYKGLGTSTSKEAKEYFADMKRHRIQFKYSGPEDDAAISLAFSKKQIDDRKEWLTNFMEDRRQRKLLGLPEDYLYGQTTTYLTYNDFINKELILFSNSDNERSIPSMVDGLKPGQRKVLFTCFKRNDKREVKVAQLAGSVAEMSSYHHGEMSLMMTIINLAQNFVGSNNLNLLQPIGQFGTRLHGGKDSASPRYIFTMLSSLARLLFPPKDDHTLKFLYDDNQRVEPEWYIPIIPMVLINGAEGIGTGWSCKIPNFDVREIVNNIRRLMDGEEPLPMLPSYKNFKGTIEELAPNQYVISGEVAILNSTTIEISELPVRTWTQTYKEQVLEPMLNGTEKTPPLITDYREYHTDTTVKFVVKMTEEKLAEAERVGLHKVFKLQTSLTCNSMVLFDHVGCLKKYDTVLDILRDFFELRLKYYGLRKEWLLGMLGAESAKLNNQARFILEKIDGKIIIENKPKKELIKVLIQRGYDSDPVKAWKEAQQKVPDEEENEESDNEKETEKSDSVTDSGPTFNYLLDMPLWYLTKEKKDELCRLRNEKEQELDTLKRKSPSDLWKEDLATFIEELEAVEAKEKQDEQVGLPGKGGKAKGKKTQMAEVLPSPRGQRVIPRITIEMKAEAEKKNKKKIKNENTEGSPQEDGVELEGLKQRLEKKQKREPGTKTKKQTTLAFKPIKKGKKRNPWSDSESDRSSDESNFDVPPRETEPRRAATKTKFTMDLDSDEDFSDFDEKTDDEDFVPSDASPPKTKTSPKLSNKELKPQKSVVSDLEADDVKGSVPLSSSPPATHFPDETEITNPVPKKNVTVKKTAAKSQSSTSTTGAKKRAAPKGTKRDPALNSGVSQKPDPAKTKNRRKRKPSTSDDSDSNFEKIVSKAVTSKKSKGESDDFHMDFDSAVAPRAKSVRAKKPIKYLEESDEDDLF
structure (smiles),measurement,setting,value
CC(C)C[C@@H](C=O)NC(=O)[C@H](CC(C)C)NC(=O)[C@H](CC(C)C)NC(=O)OCc1ccccc1 [MG132] (Cbz-Leu-Leu-Leu-aldehyde),Effect on Dex-mediated Top2b degradation,"[1]; 10 mM MG132 with 100 mM Dex, 2, 4, or 6 hours",inhibited
"CC/C(=C(\c1ccccc1)c1ccc(OCCN(C)C)cc1)c1ccccc1 [Tamoxifen, tamoxifen]",Effect on ejection fractions,"[2]; tamoxifen 25 mg/kg gavage once a day for 5 days, all three Top2b genotype groups",did not significantly affect
C[C@@H](CN1CC(=O)NC(=O)C1)N1CC(=O)NC(=O)C1 [dexrazoxane],Protection against doxorubicin-induced DNA double strand breaks in the heart (γH2AX-positive nuclei),[3],protects against doxorubicin-induced DNA double strand breaks
same,Protection against doxorubicin-induced apoptosis in the heart (TUNEL-positive nuclei),[4],protects against doxorubicin-induced apoptosis
same,"Ejection fraction, Dex in combination with doxorubicin",[2]; dexrazoxane 100 mg/kg ip 8 hrs prior to doxorubicin 5 mg/kg ip once a week for 5 weeks,unchanged
same,"Ejection fraction, Dex alone","[2]; mice, dexrazoxane 100 mg/kg ip alone",unchanged
same,Degradation of Top2b,"[1]; 100 mM Dex for 2, 4, or 6 hours",caused degradation of Top2b
same,Degradation of Top2a,[5],but not Top2a
same,Time point at which Top2b levels begin to recover,[6],12 h
same,Top2b protein level in the heart at 6 hours,[6]; 6 hours after therapy,nearly undetectable
same,Top2b protein level in the heart at 24 hours,[6]; 24 hours,still noticeably reduced
same,Top2b protein levels in the heart,[6]; time course,greatly reduced
